Results published in the NIST ThermoML archive (doi:10.1016/j.fluid.2005.09.019).

Key:
[1] = Crystal; visual observation
[2] = wn = mass fraction of the nth substance listed; details: Fluid (supercritical or subcritical phases), Other PVT measurement

O=C(OCCC(F)(F)C(F)(F)C(F)(F)C(F)(F)C(F)(F)C(F)(F)F)c1cccc(-c2cccc(C(=O)OCCC(F)(F)C(F)(F)C(F)(F)C(F)(F)C(F)(F)C(F)(F)F)c2)c1
Details | Normal melting temperature [°C]
[1] | 72.00

O=C(OCCC(F)(F)C(F)(F)C(F)(F)C(F)(F)C(F)(F)C(F)(F)F)c1ccccc1-c1ccccc1C(=O)OCCC(F)(F)C(F)(F)C(F)(F)C(F)(F)C(F)(F)C(F)(F)F + O=C=O
[2]
Details | mass density [kg/m3]
294.65 K, 5000 kPa, w1 = 0.652 | 892
294.65 K, 5620 kPa, w1 = 0.36 | 681
294.85 K, 5930 kPa, w1 = 0.063 | 606
295.15 K, 6040 kPa, w1 = 0.13 | 668
295.55 K, 6170 kPa, w1 = 0.021 | 663
297.35 K, 6380 kPa, w1 = 0.13 | 688
297.45 K, 6110 kPa, w1 = 0.36 | 690
297.75 K, 5170 kPa, w1 = 0.652 | 896
298.65 K, 5930 kPa, w1 = 0.515 | 968
298.75 K, 6310 kPa, w1 = 0.288 | 798
298.85 K, 6590 kPa, w1 = 0.063 | 640
299.15 K, 6690 kPa, w1 = 0.021 | 643
303.05 K, 7110 kPa, w1 = 0.13 | 662
303.35 K, 7210 kPa, w1 = 0.063 | 617
303.35 K, 7380 kPa, w1 = 0.021 | 601
304.65 K, 7210 kPa, w1 = 0.288 | 781
307.95 K, 7210 kPa, w1 = 0.515 | 949
309.35 K, 8200 kPa, w1 = 0.021 | 558
309.75 K, 7970 kPa, w1 = 0.36 | 739
309.95 K, 8030 kPa, w1 = 0.063 | 579
309.95 K, 8070 kPa, w1 = 0.288 | 771
311.95 K, 8580 kPa, w1 = 0.13 | 630
314.35 K, 7140 kPa, w1 = 0.652 | 966
317.85 K, 8860 kPa, w1 = 0.515 | 929
318.85 K, 9510 kPa, w1 = 0.288 | 750
320.05 K, 10210 kPa, w1 = 0.36 | 724
321.05 K, 10870 kPa, w1 = 0.202 | 594
323.85 K, 11580 kPa, w1 = 0.13 | 613
327.05 K, 11550 kPa, w1 = 0.021 | 518
330.25 K, 13000 kPa, w1 = 0.063 | 561
331.85 K, 12530 kPa, w1 = 0.36 | 712
332.75 K, 12890 kPa, w1 = 0.288 | 728
333.95 K, 9800 kPa, w1 = 0.652 | 940
334.55 K, 12170 kPa, w1 = 0.515 | 899
336.45 K, 14580 kPa, w1 = 0.202 | 578
341.45 K, 15270 kPa, w1 = 0.36 | 701
346.35 K, 16510 kPa, w1 = 0.13 | 581
349.25 K, 15310 kPa, w1 = 0.021 | 490
349.95 K, 17000 kPa, w1 = 0.063 | 536
350.65 K, 15520 kPa, w1 = 0.515 | 870
352.75 K, 17100 kPa, w1 = 0.288 | 697
353.75 K, 12800 kPa, w1 = 0.652 | 918
354.55 K, 18170 kPa, w1 = 0.202 | 565
354.95 K, 17650 kPa, w1 = 0.36 | 681
367.35 K, 20380 kPa, w1 = 0.13 | 553
368.25 K, 17510 kPa, w1 = 0.021 | 458
368.45 K, 18830 kPa, w1 = 0.515 | 840
369.05 K, 20170 kPa, w1 = 0.288 | 675
369.25 K, 19820 kPa, w1 = 0.36 | 659
370.45 K, 15210 kPa, w1 = 0.652 | 900
371.85 K, 20310 kPa, w1 = 0.063 | 503
371.85 K, 21240 kPa, w1 = 0.202 | 542
